Measured values taken from US20190175744A1, “INSULIN-INCRETIN CONJUGATES” (Merck Sharp & Dohme Corp., priority 2016, published 2019).
Read-outs that look alike come from different tables or passages of the source.

What was measured:
human GCGR = target: T1, human GCGR (Homo sapiens, UniProt P47871); assay: cAMP activity assay, cells expressing human GCGR; assay type: cell-based; conditions: for GCGR/GLP1R ratio: Table 5, ratio of hGCGR EC50 to hGLP1R EC50;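 for all read-outs here: cAMP production read by luminescence after one hour of peptide exposure at room temperature, EC50 from logistic curve fit, native glucagon and GLP-1 as control peptides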
T1 construct: expressed in transfected cells; grown with Blasticidin and Hygromycin
T1 sequence (P47871 26-477): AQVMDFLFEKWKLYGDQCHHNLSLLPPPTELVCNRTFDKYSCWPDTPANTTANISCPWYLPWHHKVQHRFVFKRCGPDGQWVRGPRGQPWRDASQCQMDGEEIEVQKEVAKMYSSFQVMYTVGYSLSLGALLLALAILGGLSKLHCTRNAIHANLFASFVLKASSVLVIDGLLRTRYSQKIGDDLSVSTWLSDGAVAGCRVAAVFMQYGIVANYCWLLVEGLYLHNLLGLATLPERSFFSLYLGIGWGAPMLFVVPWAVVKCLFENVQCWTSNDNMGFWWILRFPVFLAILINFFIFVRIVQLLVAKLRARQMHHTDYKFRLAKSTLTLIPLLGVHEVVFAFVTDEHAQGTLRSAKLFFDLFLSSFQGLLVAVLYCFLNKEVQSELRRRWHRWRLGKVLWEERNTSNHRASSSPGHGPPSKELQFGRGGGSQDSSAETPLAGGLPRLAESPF
Protocol: (§1) Activity of the incretin peptides or the conjugates at the Glucagon receptor (GCGR) and GLP-1 receptor (GLP1R) may be measured in a cAMP activity assay as follows.
(§2) Peptides are dissolved in 100% DMSO and serially diluted to generate 10 point titrations. The peptide solutions are then transferred into 384-well assay plates (150 nL/well). Assay ready frozen cells expressing human GLP1R or human GCGR are suspended in growth media consisting of DMEM medium (GIBCO), 10% FBS (GIBCO), 1×NEAA(GIBCO), 1×P/S (GIBCO), 10 μg/mL Blasticidin (GIBCO) and 200 μg/mL Hygromycin (GIBCO). […] The cell suspensions (15 μL) are then added to the assay plates containing the peptide solutions (30,000 cells/well for human GCGR; 10,000 cells/well for human GLP1R). The cells are incubated for one hour at room temperature in the dark.
(§3) Production of cAMP may be determined using HitHunterr cAMPXS kits (DiscoverX) following the manufacturer's protocol. The plates are incubated for overnight at room temperature in the dark. Luminescence may be measured using an EnVision Multilabel plate reader (Perkin Elmer). Native GLP-1 and Glucagon (Bachem) may be used as control peptides. EC50 values may be calculated using uses a 4 parameter logistic fit based on the Levenberg-Marquardt algorithm.

human GLP1R = human GLP1R (Homo sapiens, UniProt P43220); assay: cAMP activity assay, cells expressing human GLP1R; assay type: cell-based
Sequence of human GLP1R (P43220 24-463): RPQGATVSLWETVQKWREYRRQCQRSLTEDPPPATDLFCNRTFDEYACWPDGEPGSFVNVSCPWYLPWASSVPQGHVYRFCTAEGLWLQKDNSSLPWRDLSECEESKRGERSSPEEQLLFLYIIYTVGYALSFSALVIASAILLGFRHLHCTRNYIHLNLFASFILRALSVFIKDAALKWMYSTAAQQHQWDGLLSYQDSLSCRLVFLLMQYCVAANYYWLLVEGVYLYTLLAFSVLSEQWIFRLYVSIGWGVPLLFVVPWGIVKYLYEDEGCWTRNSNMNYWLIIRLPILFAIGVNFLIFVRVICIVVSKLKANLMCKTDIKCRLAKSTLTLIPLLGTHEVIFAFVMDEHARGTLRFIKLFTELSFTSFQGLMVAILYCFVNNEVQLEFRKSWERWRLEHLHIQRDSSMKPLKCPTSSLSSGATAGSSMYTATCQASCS
Protocol: as §1, §2, §3

[1] = Table 5, incretin peptides, cAMP, read-out: hGLP1R EC50

| EC50 (human GLP1R; [1]) [nM] | Ratio GCGR/GLP1R (human GCGR; Table 7, control molecules) | Compound | GCGR/GLP1R ratio (human GCGR) | EC50 (human GCGR) [nM] | EC50 (human GLP1R) [nM] |
| --- | --- | --- | --- | --- | --- |
| 0.03 |  | CCCCCCCCCCCCCCCC(=O)N[C@@H](CCC(=O)N[C@@H](CCC(=O)NCCCC[C@H](NC(=O)[C@H](CC(=O)O)NC(=O)[C@H](CO)NC(=O)[C@@H](NC(=O)[C@H](Cc1ccccc1)NC(=O)[C@@H](NC(=O)CNC(=O)[C@H](CCC(N)=O)NC(=O)[C@@H](CO)NC(=O)[C@@H](N)Cc1c[nH]cn1)[C@@H](C)O)[C@@H](C)O)C(=O)N[C@@H](CO)C(=O)N[C@@H](CCCCN)C(=O)N[C@@H](Cc1ccc(O)cc1)C(=O)N[C@@H](CC(C)C)C(=O)N[C@@H](CC(=O)O)C(=O)N[C@@H](CCC(=O)O)C(=O)N[C@@H](CCCNC(=N)N)C(=O)N[C@@H](C)C(=O)N[C@@H](C)C(=O)N[C@@H](CCC(N)=O)C(=O)N[C@@H](CCCCN=[N+]=[N-])C(=O)N[C@@H](Cc1ccccc1)C(=O)N[C@H](C(=O)N[C@@H](CCC(N)=O)C(=O)N[C@@H](Cc1c[nH]c2ccccc12)C(=O)N[C@@H](CC(C)C)C(=O)N[C@@H](CC(C)C)C(=O)N[C@@H](CC(=O)O)C(=O)N[C@H](C(N)=O)[C@@H](C)O)C(C)C)C(=O)O)C(=O)O [PEP1] | 0.5 |  |  |
|  |  | CCCCCCCCCCCCCCCC(=O)N[C@@H](CCC(=O)N[C@@H](CCC(=O)NCCCC[C@H](NC(=O)[C@H](CC(=O)O)NC(=O)[C@H](CO)NC(=O)[C@@H](NC(=O)[C@H](Cc1ccccc1)NC(=O)[C@@H](NC(=O)CNC(=O)[C@H](CCC(N)=O)NC(=O)C(C)(C)NC(=O)[C@@H](N)Cc1c[nH]cn1)[C@@H](C)O)[C@@H](C)O)C(=O)N[C@@H](CO)C(=O)N[C@@H](CCCCN)C(=O)N[C@@H](Cc1ccc(O)cc1)C(=O)N[C@@H](CC(C)C)C(=O)N[C@@H](CC(=O)O)C(=O)N[C@@H](CCC(=O)O)C(=O)N[C@@H](CCCNC(=N)N)C(=O)N[C@@H](C)C(=O)N[C@@H](C)C(=O)N[C@@H](CCC(N)=O)C(=O)N[C@@H](CC(=O)O)C(=O)N[C@@H](Cc1ccccc1)C(=O)N[C@H](C(=O)N[C@@H](CCCCN=[N+]=[N-])C(=O)N[C@@H](Cc1c[nH]c2ccccc12)C(=O)N[C@@H](CC(C)C)C(=O)N[C@@H](CC(C)C)C(=O)N[C@@H](CC(=O)O)C(=O)NCC(=O)N[C@@H](CCCNC(=N)N)C(=O)NCC(N)=O)C(C)C)C(=O)O)C(=O)O [PEP2] | 3.7 | 0.11 | 0.03 |
|  |  | CCCCCCCCCCCCCCCC(=O)N[C@@H](CCC(=O)N[C@@H](CCC(=O)NCCCC[C@H](NC(=O)[C@H](CC(=O)O)NC(=O)[C@H](CO)NC(=O)[C@@H](NC(=O)[C@H](Cc1ccccc1)NC(=O)[C@@H](NC(=O)CNC(=O)[C@H](CCC(N)=O)NC(=O)C(C)(C)NC(=O)[C@@H](N)Cc1c[nH]cn1)[C@@H](C)O)[C@@H](C)O)C(=O)N[C@@H](CO)C(=O)N[C@@H](CCCCN)C(=O)N[C@@H](Cc1ccc(O)cc1)C(=O)N[C@@H](CC(C)C)C(=O)N[C@@H](CC(=O)O)C(=O)NC(C)(C)C(=O)N[C@@H](CCCNC(=N)N)C(=O)N[C@@H](C)C(=O)N[C@@H](C)C(=O)N[C@@H](CCC(N)=O)C(=O)N[C@@H](CC(=O)O)C(=O)N[C@@H](Cc1ccccc1)C(=O)N[C@H](C(=O)N[C@@H](CCCCN=[N+]=[N-])C(=O)N[C@@H](Cc1c[nH]c2ccccc12)C(=O)N[C@@H](CC(C)C)C(=O)N[C@@H](CCS(C)(=O)=O)C(=O)N[C@@H](CCCCN)C(=O)NCC(=O)N[C@@H](CCCNC(=N)N)C(=O)NCC(N)=O)C(C)C)C(=O)O)C(=O)O [PEP3] | 4.6 | 0.07 | 0.02 |
|  |  | CCCCCCCCCCCCCCCC(=O)N[C@@H](CCC(=O)N[C@@H](CCC(=O)NCCCC[C@H](NC(=O)[C@H](CC(=O)O)NC(=O)[C@H](CO)NC(=O)[C@@H](NC(=O)[C@H](Cc1ccccc1)NC(=O)[C@@H](NC(=O)CNC(=O)[C@H](CCC(N)=O)NC(=O)C(C)(C)NC(=O)[C@@H](N)Cc1c[nH]cn1)[C@@H](C)O)[C@@H](C)O)C(=O)N[C@@H](CO)C(=O)N[C@@H](CCCCN)C(=O)N[C@@H](Cc1ccc(O)cc1)C(=O)N[C@@H](CC(C)C)C(=O)N[C@@H](CC(=O)O)C(=O)NC(C)(C)C(=O)N[C@@H](CCCNC(=N)N)C(=O)N[C@@H](CCCNC(=N)N)C(=O)N[C@@H](C)C(=O)N[C@@H](CCC(N)=O)C(=O)N[C@@H](CC(=O)O)C(=O)N[C@@H](Cc1ccccc1)C(=O)N[C@H](C(=O)N[C@@H](CCC(N)=O)C(=O)N[C@@H](Cc1c[nH]c2ccccc12)C(=O)N[C@@H](CC(C)C)C(=O)N[C@@H](CC(C)C)C(=O)N[C@@H](CC(=O)O)C(=O)N[C@H](C(=O)N[C@@H](CCCCN=[N+]=[N-])C(=O)N[C@@H](CCC(N)=O)C(=O)O)[C@@H](C)O)C(C)C)C(=O)O)C(=O)O [PEP6] |  | 0.07 | 0.17 |
|  |  | CCCCCCCCCCCCCCCC(=O)N[C@@H](CCC(=O)N[C@@H](CCC(=O)NCCCC[C@H](NC(=O)[C@H](CC(=O)O)NC(=O)[C@H](CO)NC(=O)[C@@H](NC(=O)[C@H](Cc1ccccc1)NC(=O)[C@@H](NC(=O)CNC(=O)[C@H](CCC(N)=O)NC(=O)C(C)(C)NC(=O)[C@@H](N)Cc1c[nH]cn1)[C@@H](C)O)[C@@H](C)O)C(=O)N[C@@H](CO)C(=O)N[C@@H](CCCCN)C(=O)N[C@@H](Cc1ccc(O)cc1)C(=O)N[C@@H](CC(C)C)C(=O)N[C@@H](CC(=O)O)C(=O)NC(C)(C)C(=O)N[C@@H](CCCNC(=N)N)C(=O)N[C@@H](C)C(=O)N[C@@H](C)C(=O)N[C@@H](CCC(N)=O)C(=O)N[C@@H](CC(=O)O)C(=O)N[C@@H](Cc1ccccc1)C(=O)N[C@H](C(=O)N[C@@H](CCCCN=[N+]=[N-])C(=O)N[C@@H](Cc1c[nH]c2ccccc12)C(=O)N[C@@H](CC(C)C)C(=O)N[C@@H](CCS(C)(=O)=O)C(=O)N[C@@H](CC(=O)O)C(=O)N[C@H](C(N)=O)[C@@H](C)O)C(C)C)C(=O)O)C(=O)O [PEP10] | 0.7 | 0.02 | 0.03 |
| 0.06 |  | CCCCCCCCCCCCCCCC(=O)N[C@@H](CCC(=O)N[C@@H](CCC(=O)NCCCC[C@H](NC(=O)[C@H](CC(=O)O)NC(=O)[C@H](CO)NC(=O)[C@@H](NC(=O)[C@H](Cc1ccccc1)NC(=O)[C@@H](NC(=O)CNC(=O)[C@H](CCC(N)=O)NC(=O)[C@@H](CO)NC(=O)[C@@H](N)Cc1c[nH]cn1)[C@@H](C)O)[C@@H](C)O)C(=O)N[C@@H](CO)C(=O)N[C@@H](CCCCN)C(=O)N[C@@H](Cc1ccc(O)cc1)C(=O)N[C@@H](CC(C)C)C(=O)N[C@@H](CC(=O)O)C(=O)N[C@@H](CCC(=O)O)C(=O)N[C@@H](CCCNC(=N)N)C(=O)N[C@@H](C)C(=O)N[C@@H](C)C(=O)N[C@@H](CCC(N)=O)C(=O)N[C@@H](CC(=O)O)C(=O)N[C@@H](Cc1ccccc1)C(=O)N[C@H](C(=O)N[C@@H](CCCCN=[N+]=[N-])C(=O)N[C@@H](Cc1c[nH]c2ccccc12)C(=O)N[C@@H](CC(C)C)C(=O)N[C@@H](CC(C)C)C(=O)N[C@@H](CCC(=O)N[C@H](C(N)=O)[C@@H](C)O)C(=O)O)C(C)C)C(=O)O)C(=O)O [PEP11] | 0.4 | 0.03 |  |
|  |  | CCCCCCCCCCCCCCCC(=O)N[C@@H](CCC(=O)N[C@@H](CCC(=O)NCCCC[C@H](NC(=O)[C@H](CC(=O)O)NC(=O)[C@H](CO)NC(=O)[C@@H](NC(=O)[C@H](Cc1ccccc1)NC(=O)[C@@H](NC(=O)CNC(=O)[C@H](CCC(N)=O)NC(=O)[C@@H](CO)NC(=O)[C@@H](N)Cc1c[nH]cn1)[C@@H](C)O)[C@@H](C)O)C(=O)N[C@@H](CO)C(=O)N[C@@H](CCCCN)C(=O)N[C@@H](Cc1ccc(O)cc1)C(=O)N[C@@H](CC(C)C)C(=O)N[C@@H](CC(=O)O)C(=O)N[C@@H](CC(N)=O)C(=O)N[C@@H](CCCCN)C(=O)N[C@@H](CCCNC(=N)N)C(=O)N[C@@H](C)C(=O)N[C@@H](CCC(N)=O)C(=O)N[C@@H](CC(=O)O)C(=O)N[C@@H](Cc1ccccc1)C(=O)N[C@H](C(=O)N[C@@H](CCCCN=[N+]=[N-])C(=O)N[C@@H](Cc1c[nH]c2ccccc12)C(=O)N[C@@H](CC(C)C)C(=O)N[C@@H](CC(C)C)C(=O)N[C@@H](CCC(N)=O)C(=O)N[C@H](C(N)=O)[C@@H](C)O)C(C)C)C(=O)O)C(=O)O [PEP12] | 0.3 | 0.02 | 0.07 |
|  |  | CCCCCCCCCCCCCCCC(=O)N[C@@H](CCC(=O)N[C@@H](CCC(=O)NCCCC[C@H](NC(=O)[C@H](CC(=O)O)NC(=O)[C@H](CO)NC(=O)[C@@H](NC(=O)[C@H](Cc1ccccc1)NC(=O)[C@@H](NC(=O)CNC(=O)[C@H](CCC(N)=O)NC(=O)[C@@H](CO)NC(=O)[C@@H](N)Cc1c[nH]cn1)[C@@H](C)O)[C@@H](C)O)C(=O)N[C@@H](CO)C(=O)N[C@@H](CCCCN)C(=O)N[C@@H](Cc1ccc(O)cc1)C(=O)N[C@@H](CC(C)C)C(=O)N[C@@H](CC(=O)O)C(=O)N[C@@H](CO)C(=O)N[C@@H](CCCNC(=N)N)C(=O)N[C@@H](CCCNC(=N)N)C(=O)N[C@@H](C)C(=O)N[C@@H](Cc1c[nH]cn1)C(=O)N[C@@H](CC(=O)O)C(=O)N[C@@H](Cc1ccccc1)C(=O)N[C@H](C(=O)N[C@@H](CCCCN=[N+]=[N-])C(=O)N[C@@H](Cc1c[nH]c2ccccc12)C(=O)N[C@@H](CC(C)C)C(=O)N[C@@H](CC(C)C)C(=O)N[C@@H](CC(N)=O)C(=O)N[C@H](C(N)=O)[C@@H](C)O)C(C)C)C(=O)O)C(=O)O [PEP13] | 0.4 | 0.04 | 0.1 |
|  | 1.3 | CCCCCCCCCCCCCCCC(=O)N[C@@H](CCC(=O)N[C@@H](CCC(=O)NCCCC[C@H](NC(=O)[C@H](CC(=O)O)NC(=O)[C@H](CO)NC(=O)[C@@H](NC(=O)[C@H](Cc1ccccc1)NC(=O)[C@@H](NC(=O)CNC(=O)[C@H](CCC(N)=O)NC(=O)[C@@H](CO)NC(=O)[C@@H](N)Cc1c[nH]cn1)[C@@H](C)O)[C@@H](C)O)C(=O)N[C@@H](CO)C(=O)N[C@@H](CCCCN)C(=O)N[C@@H](Cc1ccc(O)cc1)C(=O)N[C@@H](CC(C)C)C(=O)N[C@@H](CC(=O)O)C(=O)N[C@@H](CCC(=O)O)C(=O)N[C@@H](CCCNC(=N)N)C(=O)N[C@@H](C)C(=O)N[C@@H](C)C(=O)N[C@@H](CCC(N)=O)C(=O)N[C@@H](CC(=O)O)C(=O)N[C@@H](Cc1ccccc1)C(=O)N[C@H](C(=O)N[C@@H](CCC(N)=O)C(=O)N[C@@H](Cc1c[nH]c2ccccc12)C(=O)N[C@@H](CC(C)C)C(=O)N[C@@H](CC(C)C)C(=O)N[C@@H](CC(=O)O)C(=O)N[C@H](C(N)=O)[C@@H](C)O)C(C)C)C(=O)O)C(=O)O [PEP76, reference compound] |  |  |  |
|  |  | HsQGTGTSD-K(γEγEC16)SKYLDURAAQDFV-Nle(ϵN3)-WLLDT-NH2 [PEP7] | 0.2 |  |  |
